Reference: US11708340B2, “Benzothia(di)azepine compounds and their use as bile acid modulators” (Albireo AB, priority 2019, dated 2023)

Experiments:
Human LBAT = biological target: T1, Human LBAT (Homo sapiens, UniProt Q14973); experiment: LBAT (h/m) assay, human LBAT-overexpressing cells, 3H-taurocholic acid uptake; type: cell-based; conditions: 0.3 μM 3H-taurocholic acid and 7.5 μM cold taurocholic acid, 20 minutes, read-out: hLBAT IC50
T1 construct: expressed in transfected cells; Geneticin selection
T1 sequence (Q14973 1-349): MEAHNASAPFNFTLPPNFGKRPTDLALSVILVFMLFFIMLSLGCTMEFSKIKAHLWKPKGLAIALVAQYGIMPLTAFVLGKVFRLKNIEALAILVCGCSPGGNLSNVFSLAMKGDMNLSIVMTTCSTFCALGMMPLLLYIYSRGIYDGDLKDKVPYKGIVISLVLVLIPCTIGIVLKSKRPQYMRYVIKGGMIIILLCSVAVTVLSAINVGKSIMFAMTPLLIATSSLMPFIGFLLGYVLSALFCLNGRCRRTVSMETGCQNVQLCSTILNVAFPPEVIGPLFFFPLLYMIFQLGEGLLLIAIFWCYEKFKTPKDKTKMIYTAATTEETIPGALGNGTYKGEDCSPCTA
Procedure: 20,000 cells (Human or Mouse LBAT-overexpressing cells) were seeded in 96-wells plate (Corning CLS3809) in 100 μL MEM-alpha medium (Gibco 12571-063) supplemented with 10% FBS (Gibco 10438026) containing Geneticin (Gibco 10131-027) (1 mg/mL) and incubated at 37° C. in 5% CO2 for 24 hours. After incubation, media was decanted from the wells and cells were washed two times with 300 μL of basal MEM-alpha medium (FBS-free). After decanting basal MEM-alpha medium each time, plates were tapped against paper towel to ensure maximum removal of residual media.
For human LBAT, incubation mix was prepared by adding test inhibitor dilutions (3-fold serial dilution in DMSO (Sigma D2650), 10 points) in MEM-alpha (without FBS) containing 0.3 μM 3H-taurocholic acid (ARC ART-1368) and 7.5 μM cold taurocholic acid (Sigma T4009) (maintaining 0.2% final DMSO concentration). For mouse LBAT, incubation mix was prepared by adding test inhibitor dilutions (3-fold serial dilution in DMSO, 10 points) in MEM-alpha (without FBS) containing 0.3 μM 3H-taurocholic acid and 25 μM cold taurocholic acid maintaining 0.2% final DMSO concentration).
50 μL of incubation mix containing test inhibitors was then added to the wells (in duplicate) and the plates were incubated for 20 minutes in a CO2 incubator at 37° C. After incubation, the reaction was stopped by keeping the plates on ice water mix for 2-3 minutes and then the incubation mix was aspirated completely from the wells. The wells were washed two times with 250 μL of chilled unlabeled 1 mM taurocholic acid dissolved in HEPES (Gibco 15630080)-buffered (10 mM) HBSS (Gibco 14175079) (pH 7.4). The plates were tapped against a paper towel after every wash to ensure maximum removal of blocking buffer.
100 μL of MicroScint-20 (PerkinElmer 6013621) was added to the wells and kept overnight at room temperature before reading the plates in TopCount NXT™ Microplate Scintillation and Luminescence Counter from PerkinElmer under 3H Test protocol (set at 120 seconds reading time per well, with normal plate orientation).
(§1) All test compounds were provided in powder form at room temperature. 10 mM DMSO stocks of the test compounds were prepared, aliquoted and stored at −20° C. From the 10 mM DMSO stock of the compounds, a 3-fold serial dilution in DMSO was prepared to get a total of 10 dilutions of the test compounds. 0.5 μL of this dilution in DMSO was added to 250 μL of FBS-free basal media containing 3H-taurocholic acid and cold taurocholic acid to prepare the incubation mixture.

Human IBAT = biological target: T2, Human IBAT (Homo sapiens, UniProt Q12908); experiment: IBAT (h/m) assay, human IBAT-overexpressing cells, 3H-taurocholic acid uptake; type: cell-based; conditions: highest test concentration 10 μM, 20 minutes, read-out: hIBAT IC50
T2 construct: expressed in transfected cells; Puromycin selection
T2 sequence (Q12908 1-348): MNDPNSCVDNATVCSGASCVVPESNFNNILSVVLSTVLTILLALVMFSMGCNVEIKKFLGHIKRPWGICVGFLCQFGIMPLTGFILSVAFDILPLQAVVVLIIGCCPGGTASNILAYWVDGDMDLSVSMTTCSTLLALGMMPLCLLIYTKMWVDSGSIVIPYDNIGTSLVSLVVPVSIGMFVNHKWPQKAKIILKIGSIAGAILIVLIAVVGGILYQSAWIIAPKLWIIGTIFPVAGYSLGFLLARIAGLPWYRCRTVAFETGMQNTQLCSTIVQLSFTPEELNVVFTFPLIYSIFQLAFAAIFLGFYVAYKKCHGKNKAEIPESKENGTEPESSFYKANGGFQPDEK
Procedure: 10,000 cells (Human or Mouse IBAT-overexpressing cells) were seeded in 96-wells plate (Corning CLS3809) in 200 μL MEM-alpha medium (Gibco 12571-063) supplemented with 10% FBS (Gibco 10438026) containing Puromycin (Gibco A1113803) (10 μg/mL) and incubated at 37° C. in 5% CO2 for 48 hours. After incubation, media was decanted from the wells and cells were washed two times with 300 μL of basal MEM-alpha medium (FBS-free). After decanting basal MEM-alpha medium each time, plates were tapped against paper towel to ensure maximum removal of residual media. Test inhibitor dilutions (highest test concentration being 10 μM, 3-fold serial dilution, 10 points) prepared in DMSO (Sigma D2650) were added in incubation mix (maintaining 0.2% final DMSO concentration) containing 0.25 μM 3H-taurocholic acid (ARC ART-1368) and 5 μM of cold taurocholic acid (Sigma T4009). 50 μL of incubation mix containing test inhibitors was then added to the wells (in duplicate) and the plates were incubated for 20 minutes in a CO2 incubator at 37° C. After incubation, the reaction was stopped by keeping the plates on ice water mix for 2-3 minutes and then the incubation mix was aspirated completely from the wells. The wells were washed two times with 250 μL of chilled unlabeled 1 mM taurocholic acid dissolved in HEPES (Gibco 15630080)-buffered (10 mM) HBSS (Gibco 14175079) (pH 7.4). The plates were tapped against a paper towel after every wash to ensure maximum removal of blocking buffer.
100 μL of MicroScint-20 (PerkinElmer 6013621) was added to the wells and kept overnight at room temperature before reading the plates in TopCount NXT™ Microplate Scintillation and Luminescence Counter from PerkinElmer under 3H Test protocol (set at 120 seconds reading time per well).
as §1

Bioavailability studies = type: in vivo, mice (C57BL/6); conditions: male, mouse, plasma; C57BL/6 mice; single intravenous dose 1 mg/kg and single oral dose 10 mg/kg
Procedure: Male mice (C57BL/6 or CD1) or Wistar rats of 8-9 weeks old were used. For each test compound, two groups of 3 animals each were used. One group was administered a single intravenous dose of 1 mg/kg (vehicle 100% DMSO) through the tail vein and the other group was administered a single oral dose of 10 mg/kg through gavage needle. The group that was administered an oral dose was fasted overnight. Blood samples were collected after 0.083, 0.25, 0.5, 1, 2, 4, 6, 8 and 24 hours following intravenous administration, and after 0.25, 0.5, 1, 2, 4, 6, 8 and 24 hours following oral administration. Blood samples were taken from saphenous vein. 0.2% EDTA was used as the anticoagulant. The samples were analyzed by a discovery grade bioanalytical method developed for the estimation of test compound in plasma, using an LC-MS/MS system.

OATP KO mice = experiment: Effect of LBAT selective compounds on serum bile acid levels in OATP KO mice; type: in vivo; conditions: for effect on serum bile acid levels: oral administration, FIGS. 1 to 4
Text: Male OATP KO mice (Oatp1a/1b cluster knockout mice, Taconic, USA) aged 8 to 9 weeks were used in the studies. After completion of quarantine and acclimatization period, animals were randomized based on body weight into experimental groups (n=4 mice in each). On the experimental day, a baseline blood sample was collected followed by oral dosing of vehicle (0.5% CMC, 0.1% Tween 80) or compound of Example 3, 6, 13 or 15 at the indicated doses. Blood samples were then collected at various time points after dose (indicated in each graph). Blood was allowed to clot, and serum was collected by centrifugation at 3000 g, 4° C. for 15 minutes and stored at −80° C. for further analysis. The total bile acid concentration in each serum sample was determined by using the CELL BIOLABS Total Bile Acids kit (STA631) according to manufacturer's instructions. Mean±SEM, n=4.

[1] = Bidirectional permeability assay (Caco-2 cells); type: in vitro ADME; conditions: human, 10 μM in FaSSIF buffer; for Papp A→B at 120 min, 10 μM: Caco-2, pH 7.4, absorptive direction (A2B); for Papp B→A at 120 min, 10 μM: Caco-2, pH 7.4, secretory direction (B2A)
Text: HepaRG-Based Assay Protocol

| SMILES | IC50 (Human LBAT) | IC50 (Human IBAT) | bioavailability (Bioavailability studies) | Papp A→B at 120 min, 10 μM [1] | Papp B→A at 120 min, 10 μM [1] | serum bile acids levels (OATP KO mice; oral 30 mg/kg, within one hour after dosing) | effect on serum bile acid levels (OATP KO mice) |
| --- | --- | --- | --- | --- | --- | --- | --- |
| CCCC[C@H]1CN(c2ccccc2)c2cc(SC)c(O/C=C/C(=O)O)cc2S(=O)(=O)C1 (single isomer, unassigned) [Example 3] | 4.8 nM | – | 50% | 24 ×10⁻⁶ cm/s | 18.8 ×10⁻⁶ cm/s | – | increased serum bile acid levels |
| CCCCC1CN(c2ccccc2)c2cc(SC)c(O/C=C/C(=O)O)cc2S(=O)(=O)C1 (racemic) [Example 1, (E)-3-((3-butyl-7-(methylthio)-1,1-dioxido-5-phenyl-2,3,4,5-tetrahydro-1,5-benzothiazepin-8-yl)oxy)acrylic Acid] | 9.9 nM | ≥ 10000 nM | – | 25.6 ×10⁻⁶ cm/s | 19.1 ×10⁻⁶ cm/s | – | – |
| CCCC[C@H]1CN(c2ccccc2)c2cc(SC)c(O/C=C/C(=O)O)cc2S(=O)(=O)N1C (single isomer, unassigned) [Example 15] | 2.2 nM | – | 50% | 14.1 ×10⁻⁶ cm/s | 13 ×10⁻⁶ cm/s | – | increased serum bile acid levels |
| CCCC[C@H]1CN(c2ccccc2)c2cc(SCC)c(O/C=C/C(=O)O)cc2S(=O)(=O)N1C (single isomer, unassigned) [Example 18] | 2.4 nM | 5280 nM | – | 15 ×10⁻⁶ cm/s | 9.7 ×10⁻⁶ cm/s | – | – |

These reach a lower IC50 (Human LBAT). Values come first.

| IC50 (Human LBAT) | IC50 (Human IBAT) | bioavailability (Bioavailability studies) | Papp A→B at 120 min, 10 μM [1] | Papp B→A at 120 min, 10 μM [1] | SMILES | serum bile acids levels (OATP KO mice; oral 30 mg/kg, within one hour after dosing) | effect on serum bile acid levels (OATP KO mice) |
| --- | --- | --- | --- | --- | --- | --- | --- |
| 1.9 nM | 1510 nM | – | 2.4 ×10⁻⁶ cm/s | 6 ×10⁻⁶ cm/s | CCCCC1CN(c2ccccc2)c2cc(SC)c(O/C=C(\F)C(=O)O)cc2S(=O)(=O)C1 (stereo not shown) [Example 4, (Z)-3-((3-butyl-7-(methylthio)-1,1-dioxido-5-phenyl-2,3,4,5-tetrahydro-1,5-benzothiazepin-8-yl)oxy)-2-fluoroacrylic Acid] | – | – |
| 1.4 nM | 1440 nM | 26% | 2.7 ×10⁻⁶ cm/s | 5.5 ×10⁻⁶ cm/s | CCCC[C@@H]1CN(c2ccccc2)c2cc(SC)c(O/C=C(\F)C(=O)O)cc2S(=O)(=O)C1 (single isomer, unassigned) [Example 6] | – | increased serum bile acid levels |
| 1 nM | 1140 nM | – | 0.5 ×10⁻⁶ cm/s | 1.9 ×10⁻⁶ cm/s | CCCCC1CN(c2ccccc2)c2cc(SC)c(O/C=C(\F)C(=O)O)cc2S(=O)(=O)N1 (stereo not shown) [Example 10, (Z)-3-((3-butyl-7-(methylthio)-1,1-dioxido-5-phenyl-2,3,4,5-tetrahydro-1,2,5-benzothiadiazepin-8-yl)oxy)-2-fluoroacrylic Acid] | – | – |
| 1 nM | 3060 nM | – | 12.6 ×10⁻⁶ cm/s | 9.3 ×10⁻⁶ cm/s | CCCCC1CN(c2ccc(F)cc2)c2cc(SCC)c(O/C=C/C(=O)O)cc2S(=O)(=O)N1C (racemic) [Example 23, (E)-3-((3-butyl-7-(ethylthio)-5-(4-fluorophenyl)-2-methyl-1,1-dioxido-2,3,4,5-tetrahydro-1,2,5-benzothiadiazepin-8-yl)oxy)acrylic Acid] | – | – |
| 0.6 nM | 568 nM | 61% | 3.1 ×10⁻⁶ cm/s | 9.6 ×10⁻⁶ cm/s | CCCC[C@@H]1CN(c2ccccc2)c2cc(SC)c(O/C=C(\F)C(=O)O)cc2S(=O)(=O)N1C (single isomer, unassigned) [Example 13] | about 100 μmol/L | increased serum bile acids in a dose-dependent manner |
